Read-outs that look alike come from different tables or passages of the source.
Key:
Format in all cases: biochemical
TbDHFR = molecular target: T1, TbDHFR (Trypanosoma brucei brucei, UniProt Q27783); assay: Spectrophotometric enzyme inhibition assay, recombinant TbDHFR
T1 construct: pET 11D::TbDHFRHis vector design for the recombinant overexpression of TbDHFR in E. coli; His; made in house; host or cells: E. coli BL21(DE3), vector pET 11D::TbDHFRHis
Protocol: (§1) Based on the in vitro assays against TbPTR1 and LmPTR1 performed in the previous works of our group, as well as the in silico results obtained from the current study, a total of 47 natural products were tested against the target enzymes.
The saturating conditions for TbDHFR and LmDHFR were determined using the diagrams depicted in Figures S17 and S19 in the Supplementary Materials.
(§2) The inhibitory effect of the selected natural products was investigated by testing the DMSO solution of each compound at a constant concentration of 100 μM for TbPTR1 and 50 μM for LmPTR1, TbDHFR, and LmDHFR, as well as hDHFR. The concentrations of the cofactor and substrates were set at the previously determined saturating conditions (Section 4.2.5). Each test compound was incubated for 20 min with the respective enzyme and NADPH to ensure a sufficient interaction time before the reaction was induced by the addition of the substrate. The enzymatic activity was determined in duplicates and correlated with a reference that contained just DMSO, instead of an inhibitor. The enzymatic activity of the reference was normalized to 100%.
(§3) The half-maximal inhibitory concentration (IC50) of the natural products was determined in triplicate, using at least five different inhibitor concentrations against a reference containing no inhibitor. The enzymatic activity was documented and analyzed and the IC50 value was determined by nonlinear regression using GraphPad Prism 9 (GraphPad Software Inc., La Jolla, CA, USA).

TbPTR1 [1] = molecular target: T2, TbPTR1 (Trypanosoma brucei brucei, UniProt O76290); assay: Dilution assay for reversible/irreversible inhibition of TbPTR1; conditions: inhibitor concentration near IC50
T2 construct: His6 (N); made in house; host or cells: E. coli BL21 (DE3), vector pET 15b::TbPTR1His (strain from the group of M. Paola Costi, Modena)
T2 sequence (O76290 1-268): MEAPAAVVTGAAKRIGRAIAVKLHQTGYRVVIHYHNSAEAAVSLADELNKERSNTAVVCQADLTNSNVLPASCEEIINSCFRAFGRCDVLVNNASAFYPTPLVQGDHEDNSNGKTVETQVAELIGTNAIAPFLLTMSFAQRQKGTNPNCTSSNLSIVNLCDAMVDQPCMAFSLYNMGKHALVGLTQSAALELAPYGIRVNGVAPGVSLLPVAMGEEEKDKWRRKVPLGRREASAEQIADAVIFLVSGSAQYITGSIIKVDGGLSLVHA
Description: The catalytic center of TbPTR1 contains a cysteine residue (TbCys168) in close proximity to the substrate/inhibitor binding site. In our previous publication, we mentioned the possibility that Sesquiterpene Lactones 1 and 2 might interact as Michael acceptors with TbCys168 by covalent bond formation with its thiol group. Therefore, we have now subjected a selection of natural product inhibitors containing Michael acceptors (1, 2, 5, 17) to initial testing for irreversible inhibition, according to the dilution method described by Bisswanger (see Section 4.2.9).
In this method, the enzyme activity of the respective enzyme-inhibitor mixture is measured before and after a defined dilution (in this study, 1:2). In the absence of an inhibitor, dilution decreases the enzyme activity proportionally to the dilution factor. […] A reversible inhibitor, on the other hand, will dissociate upon dilution, resulting in a weaker decrease in activity than what corresponds to the dilution effect. In the presence of Inhibitors 1 and 2, the decrease in TbPTR1 activity upon the 1:2 dilution was almost proportional to the dilution factor, i.e., only 9.5% and 6.8% activity, respectively, were recovered compared to the reference. This would indeed support an irreversible mechanism of inhibition. […] However, further investigations on these compounds’ mechanisms of inhibition are under way.
To assign an either reversible or irreversible inhibition mechanism to selected compounds, the enzymatic activity of an enzyme-inhibitor mixture was determined before and after a defined dilution, using the reaction conditions described in Section 4.2.5 [16].
Two equivalent solutions with the respective enzyme and inhibitor combination were prepared, one of them being diluted with buffer in a 1:2 ratio shortly before the reaction was started by adding the substrate. The respective inhibitor concentration was set near the IC50 value. The substrate and cofactor concentrations were kept constant in both reaction mixtures. All measurements were carried out in duplicates against a reference containing DMSO instead of the inhibitor. […] If a reversible inhibitor was present, a higher degree of activity recovery (>>10%) could be observed than what corresponds to the dilution factor due to the partial dissociation of the inhibitor from the enzyme upon dilution. The percentual changes in the enzymatic activity of the undiluted and diluted test solution were compared and evaluated to decide the mechanism of inhibition.

hDHFR = molecular target: T3, hDHFR (Homo sapiens, UniProt P00374); assay: Spectrophotometric enzyme inhibition assay, recombinant hDHFR (selectivity)
T3 construct: His; host or cells: E. coli BL21 (DE3), vector pET 15b::hDHFRHis
T3 sequence (P00374 1-187): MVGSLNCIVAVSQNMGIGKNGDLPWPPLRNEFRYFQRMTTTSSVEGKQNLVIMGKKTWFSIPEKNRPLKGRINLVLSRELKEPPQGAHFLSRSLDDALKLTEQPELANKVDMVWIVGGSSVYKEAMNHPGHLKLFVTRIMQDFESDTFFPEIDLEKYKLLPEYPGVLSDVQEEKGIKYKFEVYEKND
Protocol: For 15 compounds, there was enough substance available to be tested in selectivity studies against hDHFR.
The used hDHFR concentration was 0.64 mg/mL, with a specific activity of 0.62 U/mg. All measurements were carried out using the saturating concentrations for dihydrofolate (100 μM) and NADPH (50 μM) in Buffer C (50 mM Tris/HCl (pH 7.6), 250 mM NaCl, 10 mM BME). The saturating conditions for hDHFR were determined using the diagrams depicted in Figure S20 in the Supplementary Materials.
as §2, §3

LmPTR1 = molecular target: T4, LmPTR1 (Leishmania major, UniProt Q01782); assay: Spectrophotometric enzyme inhibition assay, recombinant LmPTR1
T4 construct: His6 (N); made in house; host or cells: E. coli BL21 (DE3), vector pET 15b::LmPTR1His (strain from the group of M. Paola Costi, Modena)
T4 sequence (Q01782 1-288): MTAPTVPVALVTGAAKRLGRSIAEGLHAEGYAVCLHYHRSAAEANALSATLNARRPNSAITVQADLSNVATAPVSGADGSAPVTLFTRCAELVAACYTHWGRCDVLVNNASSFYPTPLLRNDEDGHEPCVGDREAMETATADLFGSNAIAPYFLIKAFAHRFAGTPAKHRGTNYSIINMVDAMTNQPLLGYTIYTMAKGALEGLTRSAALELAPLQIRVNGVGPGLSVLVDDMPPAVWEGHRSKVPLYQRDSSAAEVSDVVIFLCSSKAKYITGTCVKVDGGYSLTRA
Protocol: as §1, with “enzymes. […] The concentration-effect curves for the IC50 and EC50 values that were obtained in the present study are depicted in Supplementary Materials Figures S21–S42.” for “enzymes.”
(§4) The used TbPTR1 concentration was 3.23 mg/mL, with a specific activity of 0.03 U/mg. The measurements were carried out using the enzyme’s individual saturating concentrations for folic acid (8 μM) and NADPH (150 μM) in Buffer A (50 mM Tris/HCl (pH 7.6), 250 mM NaCl). For LmPTR1, the protein concentration was 5.02 mg/mL and the specific activity was calculated to be 0.29 U/mg. Buffer B (50 mM NaH2PO4 (pH 6.0), 100 mM NaCl) was used for all LmPTR1 measurements and the saturating concentrations amounted to 50 μM of folic acid and 200 μM of NADPH. The saturating conditions of the PTR1 enzymes were determined using the diagrams depicted in Figures S16 and S18 in the Supplementary Materials.
as §2, §3

TbPTR1 [2] = molecular target: T2, TbPTR1; assay: Spectrophotometric enzyme inhibition assay, recombinant TbPTR1
Protocol: as §1, with “enzymes. […] The concentration-effect curves for the IC50 and EC50 values that were obtained in the present study are depicted in Supplementary Materials Figures S21–S42.” for “enzymes.”
as §4, §2, §3

LmDHFR = molecular target: T5, LmDHFR (Leishmania major, UniProt P07382); assay: Spectrophotometric enzyme inhibition assay, recombinant LmDHFR
T5 construct: The DNA fragment encoding LmDHFR was amplified by Phusion DNA polymerase; His6 (N); made in house; host or cells: E. coli BL21(DE3), vector pET 11D::LmDHFRHis
T5 sequence (P07382 26-229 limits assumed): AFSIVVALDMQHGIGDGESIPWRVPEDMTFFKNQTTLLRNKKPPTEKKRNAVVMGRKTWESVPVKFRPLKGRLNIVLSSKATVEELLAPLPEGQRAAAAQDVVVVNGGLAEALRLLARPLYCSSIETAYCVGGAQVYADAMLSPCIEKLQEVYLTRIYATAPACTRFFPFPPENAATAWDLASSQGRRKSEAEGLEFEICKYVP
Protocol: as §1, with “enzymes. […] The concentration-effect curves for the IC50 and EC50 values that were obtained in the present study are depicted in Supplementary Materials Figures S21–S42.” for “enzymes.”
The TbDHFR concentration was measured to be 0.04 mg/mL and a specific activity of 38.1 U/mg was calculated. The concentration of LmDHFR was 0.05 mg/mL with a specific activity of 56.2 U/mg. All measurements were carried out using the saturating concentrations for dihydrofolate (50 μM) and NADPH (150 μM) in Buffer C (50 mM Tris/HCl (pH 7.6), 250 mM NaCl, 10 mM BME). The saturating conditions for TbDHFR and LmDHFR were determined using the diagrams depicted in Figures S17 and S19 in the Supplementary Materials.
as §2, §3

T1 sequence (Q27783 28-238 limits assumed): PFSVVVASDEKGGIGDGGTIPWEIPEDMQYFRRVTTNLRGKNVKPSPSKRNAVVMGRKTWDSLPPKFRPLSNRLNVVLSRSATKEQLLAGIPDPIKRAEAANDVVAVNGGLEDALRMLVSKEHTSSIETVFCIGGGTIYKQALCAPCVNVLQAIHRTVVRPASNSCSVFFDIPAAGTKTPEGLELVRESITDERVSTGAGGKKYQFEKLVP

`C=C(CO)C(=O)O[C@H]1CC(=C)[C@@H]2C[C@H](O)C(=C)[C@@H]2[C@H]2OC(=O)C(=C)[C@@H]21` [Compound 2, cynaropicrin] was tested, and the IC50 (TbDHFR; recombinant enzyme, >50 = <50% inhibition at 50 μM, read-out: IC50 TbDHFR) was 7120 nM, the “TbPTR1 activity recovered upon 1:2 dilution compared to the reference” value (TbPTR1 [1]) was 6.8% and the IC50 (hDHFR) was greater than 50 µM. The “inhibition of hDHFR” value (hDHFR) was “no relevant inhibition”, the IC50 (LmPTR1) was greater than 50 µM and the “inhibitory effect against LmPTR1” value (LmPTR1) was “No relevant inhibitory effect”.
For `CCC(C)C(=O)c1c(O)c(C/C=C(\C)CCC=C(C)C)c(O)c2c([C@H](CC)OC(C)=O)cc(=O)oc12` (stereo partly shown) [Compound 20, surangin B], the IC50 (TbDHFR; read-out: IC50 TbDHFR) was 2900 nM, the IC50 (hDHFR) was greater than 50 µM and the IC50 (TbPTR1 [2]; read-out: IC50 TbPTR1) was 28.3 µM. For the same compound, the EC50 (LmPTR1; read-out: EC50 LmPTR1 (footnote a)) was 35.1 µM and the EC50 (LmDHFR; read-out: EC50 LmDHFR (footnote a)) was 4.7 µM.
`OC[C@H]1O[C@@H](Oc2c(O)cc(O)cc2/C=C/c2ccc(O)cc2)[C@H](O)[C@@H](O)[C@@H]1O` [Compound 10] was tested, and the IC50 (TbDHFR; read-out: IC50 TbDHFR) was greater than 50000 nM, the IC50 (TbPTR1 [2]; read-out: IC50 TbPTR1) was 83.6 µM and the IC50 (LmPTR1; read-out: IC50 LmPTR1) was greater than 50 µM. It also gave an IC50 (LmDHFR; read-out: IC50 LmDHFR) greater than 50 µM.
Compound `COc1c(O)cc2c(=O)c3c(O)cc(O)c(CC=C(C)C)c3oc2c1CC=C(C)C` [Compound 13] has an IC50 (TbDHFR; read-out: IC50 TbDHFR) of 600 nM and an IC50 (TbPTR1 [2]; read-out: IC50 TbPTR1) of 74.4 µM.
`CC(C)=CCc1c(O)cc2oc3cc(O)c(O)c(CC=C(C)C)c3c(=O)c2c1O` [Compound 14, g-mangostin] gave an IC50 (TbDHFR) of 200 nM, an IC50 (hDHFR) of 2.7 µM and an inhibition at 50 µM (hDHFR; set compound concentration of 50 μM, read-out: relative inhibition of hDHFR) greater than 50%. The IC50 (TbPTR1 [2]) was 71 µM, the IC50 (LmPTR1) was 10 µM and the IC50 (LmDHFR) was 1.5 µM.
`COc1cc(C2OC(=O)C3C(c4ccc(O)c(OC)c4)OC(=O)C23)ccc1O` (stereo not shown) [Compound 22] gave an IC50 (TbDHFR; read-out: IC50 TbDHFR) greater than 50000 nM, an IC50 (hDHFR) greater than 50 µM and an EC50 (TbPTR1 [2]; read-out: EC50 TbPTR1 (footnote a)) of 37.8 µM. The IC50 (LmPTR1; read-out: IC50 LmPTR1) was 30.2 µM and the IC50 (LmDHFR; read-out: IC50 LmDHFR) was greater than 50 µM.
`COc1ccc2c(c1)CCN=C2Cc1cc(OCc2ccccc2)c(OC)cc1C` [Compound 19] showed an IC50 (TbDHFR; read-out: IC50 TbDHFR) greater than 50000 nM and an IC50 (TbPTR1 [2]; read-out: IC50 TbPTR1) of 75.1 µM.
For `COc1cc(-c2oc3c(OC)c(O)cc(O)c3c(=O)c2OC)c(OC)c(OC)c1OC` [Compound 23, 5,7-dihydroxy-3,3′,4′,5′,6′,8-hexamethoxyflavone], the “TbPTR1 activity recovered upon 1:2 dilution compared to the reference” value (TbPTR1 [1]) was “about 33%”.

From PMC10673058, “In Silico and In Vitro Search for Dual Inhibitors of the Trypanosoma brucei and Leishmania major Pteridine Reductase 1 and Dihydrofolate Reductase” (Molecules, 2023)
